Among the test systems are A498; A549; COLO 205; DU-145; HCT-15; IGROV-1; MDA-MB-435; MDA-N; NCI-H522; OVCAR-3; OVCAR-5; RPMI-8226; RXF 393; SK-MEL-2; SNB-19; T47D; UACC-257; NCI/ADR-RES; SF-268; KM12.
Holding throughout (assay): NCI tumour cell line growth inhibition, 48 h

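Cells were grown in 96-well plates and exposed to each compound for 48 hours at five concentrations; endpoints were interpolated linearly between bracketing concentrations, or set to the highest concentration if not reached. Here, GI50 denotes the concentration required for 50% inhibition of growth.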 The source made the active and inactive calls. Rule as the data show it: active = GI50 up to about 1.1 µM and inactive = higher. Bounds are passed on as bounds.

Results on eleven molecules are retold here after ChEMBL document CHEMBL1201862, “PubChem BioAssay data set” (2004).

Take `C[Si](C)(C)C1=C2C(=O)c3ccccc3C(=O)C2=C([Si](C)(C)C)[C@@H]2CCCC[C@H]12`: the GI50 in the assay on A498 was > 100 µM (inactive); in the assay on A549, > 100 µM (inactive); in the assay on COLO 205, > 100 µM (inactive); with DU-145 it was > 100 µM (inactive); in the assay with HCT-15 it was more than 100 µM; in the assay on IGROV-1, > 100 µM (inactive). Also, the GI50 in the assay with MDA-MB-435, in the assay with MDA-N, with NCI-H522, in the assay with OVCAR-3, in the assay on OVCAR-5 and in the assay with RPMI-8226 was > 100 µM (inactive) in each case. For the same molecule, the GI50 in the assay with RXF 393, with SK-MEL-2, in the assay on SNB-19, in the assay on T47D and with UACC-257 was > 100 µM (inactive) each time.
For the molecule `CC(NC(CC12CC3CC(CC(C3)C1)C2)C(N)=O)c1ccccc1` (configuration not stated), the GI50 was 14.6 µM (inactive) in the assay on A498; 39.8 µM (inactive) in the assay with A549; 12.6 µM (inactive) in the assay with COLO 205; 24.7 µM (inactive) in the assay with DU-145; 31.7 µM in the assay with HCT-15; 39.7 µM (inactive) in the assay with IGROV-1. Further, the GI50 was 16.7 µM (inactive) in the assay on MDA-MB-435; 25.6 µM (inactive) in the assay with MDA-N; 18 µM (inactive) with NCI-H522; 17.8 µM (inactive) in the assay on NCI/ADR-RES; 13.2 µM (inactive) in the assay with OVCAR-3; 17.5 µM (inactive) with OVCAR-5. Also, the GI50 in the assay with RPMI-8226 is 15.7 µM (inactive); in the assay with SF-268, 25 µM (inactive); in the assay on SNB-19, 28.9 µM (inactive); in the assay on T47D, 35.6 µM (inactive); in the assay with UACC-257, 15.2 µM (inactive).
As to `O=C1Nc2ccccc2/C1=N/Nc1nc(-c2ccccc2)cs1`, the GI50 was 75.3 µM (inactive) in the assay on A549; 42.4 µM (inactive) with COLO 205; 35.5 µM (inactive) with DU-145; 23.1 µM in the assay with HCT-15; 21.1 µM (inactive) in the assay with IGROV-1; 30.3 µM (inactive) in the assay on KM12. Besides, the GI50 was > 100 µM (inactive) with MDA-MB-435; 62.4 µM (inactive) in the assay on MDA-N; 20.5 µM (inactive) with NCI/ADR-RES; 26.4 µM (inactive) in the assay with OVCAR-3; 58.3 µM (inactive) in the assay with OVCAR-5; 84.1 µM (inactive) in the assay on SK-MEL-2. The GI50 in the assay with SNB-19 was 29.9 µM (inactive); in the assay with T47D it was 26.9 µM (inactive); in the assay on UACC-257, 56.2 µM (inactive).
`Cc1cc(C#N)c(Nc2ccc(F)cc2[N+](=O)[O-])s1`: the GI50 in the assay on A498 was > 100 µM (inactive); with A549 it was > 100 µM (inactive); with COLO 205, > 100 µM (inactive); in the assay with DU-145, > 100 µM (inactive); in the assay on HCT-15, more than 100 µM; with KM12, > 100 µM (inactive). Besides, the GI50 in the assay on MDA-MB-435, with MDA-N, in the assay with NCI-H522, in the assay with NCI/ADR-RES, in the assay with OVCAR-3 and with OVCAR-5 was > 100 µM (inactive) each time. The GI50 was > 100 µM (inactive) with RPMI-8226; 20.2 µM (inactive) with RXF 393; 25.5 µM (inactive) in the assay on SF-268; > 100 µM (inactive) with SNB-19; > 100 µM (inactive) in the assay on T47D; > 100 µM (inactive) with UACC-257.
Turning to `O=C1C2=Cc3ccccc3OC2(O)Oc2ccc(O)cc21` (configuration not stated), the GI50 was > 100 µM (inactive) in the assay on A498; 53.6 µM (inactive) with A549; 40.8 µM (inactive) in the assay on COLO 205; > 100 µM (inactive) with DU-145; 38.6 µM in the assay with HCT-15; 56.4 µM (inactive) in the assay on IGROV-1. The GI50 in the assay on KM12 was > 100 µM (inactive); in the assay on MDA-MB-435, > 100 µM (inactive); in the assay with MDA-N it was > 100 µM (inactive); in the assay on NCI/ADR-RES it was 49.9 µM (inactive); in the assay with OVCAR-3, 36.7 µM (inactive); with OVCAR-5, > 100 µM (inactive). Moreover, the GI50 with RPMI-8226 was 23.1 µM (inactive); in the assay with RXF 393 it was > 100 µM (inactive); in the assay with SF-268, > 100 µM (inactive); in the assay on SK-MEL-2, > 100 µM (inactive); in the assay with T47D, > 100 µM (inactive); in the assay on UACC-257, > 100 µM (inactive).
Take `N#Cc1sc2c(c1O)c(=O)n(-c1ccccc1)c(=S)n2-c1ccccc1`: the GI50 in the assay with A549 is > 100 µM (inactive); in the assay on COLO 205, > 100 µM (inactive); with DU-145, > 100 µM (inactive); in the assay on HCT-15, more than 100 µM; in the assay on IGROV-1 it was > 100 µM (inactive); in the assay with KM12, > 100 µM (inactive). Besides, the GI50 with MDA-MB-435, with MDA-N, in the assay on NCI-H522, with OVCAR-3, with OVCAR-5 and in the assay on RPMI-8226 was > 100 µM (inactive) throughout. The GI50 with RXF 393, with SF-268, with SK-MEL-2, in the assay with SNB-19, in the assay on T47D and in the assay on UACC-257 was > 100 µM (inactive) each time.
For `Cc1cc2ncn(C3CCCO3)c2cc1C` (configuration not stated), the GI50 was > 100 µM (inactive) in the assay with A549; > 100 µM (inactive) in the assay on COLO 205; > 100 µM (inactive) in the assay on DU-145; more than 100 µM in the assay on HCT-15; > 100 µM (inactive) with IGROV-1; 74.5 µM (inactive) in the assay on KM12. In addition, the GI50 with MDA-MB-435 is > 100 µM (inactive); in the assay on MDA-N it was > 100 µM (inactive); in the assay with NCI-H522, 12.1 µM (inactive); with NCI/ADR-RES it was > 100 µM (inactive); in the assay with OVCAR-3, > 100 µM (inactive); in the assay on OVCAR-5, > 100 µM (inactive). The GI50 in the assay on RPMI-8226, in the assay with RXF 393, in the assay on SF-268, in the assay on SK-MEL-2, with SNB-19 and in the assay on T47D was > 100 µM (inactive) throughout. Further, the GI50 in the assay with UACC-257 was > 100 µM (inactive).
For `Cc1cccc(Nc2nc3ccccc3nc2NS(=O)(=O)c2ccc(N)cc2)c1`, the GI50 was 23.8 µM (inactive) in the assay on A549; 21.1 µM (inactive) in the assay on COLO 205; 37.2 µM (inactive) in the assay on DU-145; 34.1 µM in the assay on HCT-15; 33 µM (inactive) in the assay with IGROV-1; 26.7 µM (inactive) in the assay on KM12. Moreover, the GI50 in the assay with MDA-MB-435 is 38.6 µM (inactive); in the assay on MDA-N, 45.9 µM (inactive); in the assay on NCI-H522, 18 µM (inactive); in the assay on NCI/ADR-RES it was 36.1 µM (inactive); with OVCAR-3 it was 38.5 µM (inactive); in the assay on OVCAR-5 it was > 100 µM (inactive). Also, the GI50 in the assay on RPMI-8226 was 23.4 µM (inactive); in the assay with RXF 393 it was 18.5 µM (inactive); with SF-268, 63.7 µM (inactive); in the assay with SK-MEL-2, 24.9 µM (inactive); in the assay with SNB-19, 31.3 µM (inactive); in the assay on T47D, 34.5 µM (inactive). Also, in the assay with UACC-257, the GI50 is 41.4 µM (inactive).
For `c1ccc(-c2c3c(nc4c2CC[C@H]4NC2=NCCN2)[C@@H](NC2=NCCN2)CC3)cc1`, the GI50 in the assay on A498 was > 100 µM (inactive); in the assay on A549, > 87.9 µM (inactive); in the assay with COLO 205, > 100 µM (inactive); with DU-145, > 100 µM (inactive); in the assay on HCT-15, more than 100 µM; in the assay on IGROV-1, 40 µM (inactive). The GI50 with KM12 is > 100 µM (inactive); in the assay with MDA-MB-435, > 100 µM (inactive); with MDA-N, > 100 µM (inactive); in the assay on NCI-H522, > 100 µM (inactive); with NCI/ADR-RES it was > 100 µM (inactive); in the assay with OVCAR-3, 65.8 µM (inactive). The GI50 was > 100 µM (inactive) with OVCAR-5; > 100 µM (inactive) in the assay with RXF 393; 63.4 µM (inactive) in the assay with SF-268; > 100 µM (inactive) in the assay on SK-MEL-2; > 100 µM (inactive) in the assay on T47D; > 90.6 µM (inactive) in the assay on UACC-257.
For the molecule `FC(F)(F)c1ccc2c(c1)nc(Cc1ccc(Cl)cc1)n2CC1CCCN2CCCCC12` (configuration not stated), the GI50 was 14.2 µM (inactive) in the assay with A498; 12.6 µM (inactive) with A549; 3.96 µM (inactive) in the assay with COLO 205; 10 µM (inactive) in the assay on DU-145; 8.69 µM with HCT-15; 10.4 µM (inactive) with IGROV-1. The GI50 in the assay with KM12 is 5.02 µM (inactive); in the assay with MDA-MB-435, 6.27 µM (inactive); with MDA-N, 1.52 µM (inactive); with NCI-H522, 4.37 µM (inactive); in the assay on NCI/ADR-RES, 8.18 µM (inactive); in the assay on OVCAR-3, 3.8 µM (inactive). The GI50 is 12.5 µM (inactive) in the assay with OVCAR-5; 10.3 µM (inactive) with RXF 393; 5.07 µM (inactive) in the assay on SF-268; 13.6 µM (inactive) in the assay with SK-MEL-2; 14 µM (inactive) in the assay with SNB-19; 6.61 µM (inactive) in the assay with T47D. Besides, in the assay with UACC-257, the GI50 was 2.92 µM (inactive).
In the case of `COc1cc(/C=C/C(=O)OCC23CC[C@@]4(C(=O)O)CCC(C)[C@H](C)C4C2=CCC2[C@@]4(C)CC[C@H](O)C(C)(C)C4CC[C@]23C)ccc1O` (some centres not stated), the GI50 with A498 is 32.4 µM (inactive); with A549 it was 7.76 µM (inactive); with COLO 205, > 10 µM (inactive); in the assay with DU-145, 10.2 µM (inactive); in the assay on HCT-15 it was 21.6 µM; in the assay on IGROV-1, 14.5 µM (inactive). Besides, the GI50 was 29.9 µM (inactive) in the assay on KM12; 24.5 µM (inactive) in the assay with MDA-MB-435; 24.3 µM (inactive) in the assay on MDA-N; 3.98 µM (inactive) in the assay on NCI-H522; 15.6 µM (inactive) in the assay on NCI/ADR-RES; 3.88 µM (inactive) in the assay with OVCAR-3. Moreover, the GI50 in the assay with OVCAR-5 is 21.7 µM (inactive); in the assay on RXF 393 it was 12.7 µM (inactive); with SF-268, 4.66 µM (inactive); in the assay with SK-MEL-2, 22.5 µM (inactive); in the assay on SNB-19, 31.2 µM (inactive); with T47D it was 48.5 µM (inactive). Also, in the assay on UACC-257, the GI50 was 17.7 µM (inactive).
